Common to all, as to format: cell-based
The subject of one assay is E. coli 51A266. Nature of the assay: In vitro antibacterial activity (MIC), E. coli 51A266. The conditions noted are these: Escherichia coli, nutrient broth. The text has this:
(§1) As has been previously mentioned, the penicillins of the present invention are broad spectrum antibiotics which are, unlike many penicillin analogs, highly antagonistic toward gram-negative microorganisms, in particular E. coli and Klebsiella. This unusual activity against certain gram-negative organisms may be attributed to the positioning of the aminomethyl substituent adjacent to the linking amide moiety. The marked effectiveness of this positioning can be readily seen in an antibacterial comparison of 6-(o-aminomethylphenylacetamido)penicillanic acid (o-AMP), a preferred compound of the present invention and 6-(p-aminomethylphenylacetamido)penicillanic acid (p-AMP), a compound of the previously-mentioned British Pat. 1,057,029.

In another assay the test system is Salm. typhm. 530013. Nature of the assay: In vitro antibacterial activity (MIC), Salm. typhm. 530013. To be noted: nutrient broth.
Description: as §1

The test system of another assay is S. aureus 01A052. Nature of the assay: In vitro antibacterial activity (MIC), S. aureus 01A052. To be noted: Staphylococcus aureus, nutrient broth.
Description: as §1

A further assay has as its system E. coli 51A215. Kind of assay: In vitro antibacterial activity (MIC), E. coli 51A215. The conditions noted are these: Escherichia coli, nutrient broth.
Description: as §1

A further assay concerns E. coli 51A002. Nature of the assay: In vitro antibacterial activity (MIC), E. coli 51A002. To be noted: Escherichia coli, nutrient broth.
Description: as §1

In the next assay the test system is S. aureus 01A005. Kind of assay: In vitro antibacterial activity (MIC), S. aureus 01A005. The conditions noted are these: Staphylococcus aureus, nutrient broth.
Description: as §1

A further assay has as its system Entero. aero. 55A004. Kind of assay: In vitro antibacterial activity (MIC), Entero. aero. 55A004. The conditions noted are these: nutrient broth.
Description: as §1

The subject of another assay is S. pyogenes 020803. Kind of assay: In vitro antibacterial activity (MIC), S. pyogenes 020803. The conditions noted are these: Streptococcus pyogenes, nutrient broth.
Description: as §1

Another assay deals with Past. mult. 59A001. Kind of assay: In vitro antibacterial activity (MIC), Past. mult. 59A001. The conditions noted are these: nutrient broth.
Description: as §1

In the next assay the test system is Kleb. pneumoniae 53A009. Nature of the assay: In vitro antibacterial activity (MIC), Kleb. pneumoniae 53A009. The conditions noted are these: Klebsiella pneumoniae, nutrient broth.
Description: as §1

≈ marks a conversion by molar mass, not a printed value.

Regarding `CC1(C)S[C@@H]2C(NC(=O)Cc3ccccc3CN)C(=O)N2[C@H]1C(=O)O` (some centres unmarked) [o-AMP, 6-(o-aminomethylphenylacetamido)penicillanic acid], the MIC was 3.12 µg/mL (≈ 8.58 µM) in the assay with E. coli 51A266; 3.12 µg/mL (≈ 8.58 µM) against Salm. typhm. 530013; 1.56 µg/mL (≈ 4.29 µM) in the assay with S. aureus 01A052; 6.25 µg/mL (≈ 17.2 µM) against E. coli 51A215; 200 µg/mL (≈ 550 µM) against E. coli 51A002; 0.2 µg/mL (≈ 0.55 µM) in the assay with S. aureus 01A005. Besides, the MIC against Entero. aero. 55A004 was 1.56 µg/mL (≈ 4.29 µM); with S. pyogenes 020803, under 0.1 µg/mL; with Past. mult. 59A001 it was 0.2 µg/mL (≈ 0.55 µM); in the assay with Kleb. pneumoniae 53A009, 3.12 µg/mL (≈ 8.58 µM).
Regarding `CC1(C)S[C@@H]2C(NC(=O)Cc3ccc(CN)cc3)C(=O)N2[C@H]1C(=O)O` (some centres unmarked) [p-AMP, 6-(p-aminomethylphenylacetamido)penicillanic acid], the MIC with E. coli 51A266 is 50 µg/mL (≈ 138 µM); against Salm. typhm. 530013, 12.5 µg/mL (≈ 34.4 µM); in the assay on S. aureus 01A052, 200 µg/mL (≈ 550 µM); against E. coli 51A215, 6.25 µg/mL (≈ 17.2 µM); with E. coli 51A002, over 200 µg/mL; with S. aureus 01A005, 200 µg/mL (≈ 550 µM). In addition, the minimum inhibitory concentration (MIC) was over 200 µg/mL in the assay on Entero. aero. 55A004, 0.39 µg/mL (≈ 1.07 µM) in the assay on S. pyogenes 020803, 0.39 µg/mL (≈ 1.07 µM) against Past. mult. 59A001 and 50 µg/mL (≈ 138 µM) against Kleb. pneumoniae 53A009.

By MIC is commonly meant the least concentration at which growth counts as inhibited. A low value points to inhibition by little substance.

The record behind these values is US3997527A, “Aminomethylarylmethylpenicillin derivatives” (Pfizer Inc., priority 1976, dated 1976).
